ChEMBL document CHEMBL5500342, “Rational molecular design converting fascaplysin derivatives to potent broad-spectrum inhibitors against bacterial pathogens via targeting FtsZ” (Eur J Med Chem, 2024)
Calls of active or inactive are those of the source. The rule behind the calls is not given here.

Columns and labels:
[1] = test system: Cell membrane; experiment: Disruption of cell membrane integrity in methicillin-resistant Staphylococcus aureus ATCC43300 assessed as appearance of sunken fine microstructures at 4 times of MIC incubated for 2 hrs by scanning electron microscopic analysis; type: cell membranes
[2] = test system: Salmonella enteritidis; experiment: Antibacterial activity against Salmonella enteritidis BNCC281091 assessed as inhibition of bacterial growth incubated for 18 hrs by CLSI protocol based microbroth dilution method; type: functional, Salmonella enterica subsp. enterica serovar Enteritidis; settings: Salmonella enterica
[3] = test system: Erythrocyte; experiment: Hemolytic activity in human erythrocytes at 0.195 to 25 microg/ml incubated for 1 hrs by absorbance based assay; type: toxicity, cell-based; settings: dose 0.195-25 µg/ml
[4] = biological target: T1, Cell division protein FtsZ (Staphylococcus aureus) (UniProt P0A031); experiment: Induction of FtsZ polymerization in methicillin-resistant Staphylococcus aureus ATCC43300 assessed as increase in thickness of assembly at 4 microg/ml preincubated for 10 mins followed by GTP addition and measured after 15 mins by transmission electron microscopic analysis; settings: filed as activator, dose 4.0 µg/ml, time 25.0 min
T1 sequence (whole entry): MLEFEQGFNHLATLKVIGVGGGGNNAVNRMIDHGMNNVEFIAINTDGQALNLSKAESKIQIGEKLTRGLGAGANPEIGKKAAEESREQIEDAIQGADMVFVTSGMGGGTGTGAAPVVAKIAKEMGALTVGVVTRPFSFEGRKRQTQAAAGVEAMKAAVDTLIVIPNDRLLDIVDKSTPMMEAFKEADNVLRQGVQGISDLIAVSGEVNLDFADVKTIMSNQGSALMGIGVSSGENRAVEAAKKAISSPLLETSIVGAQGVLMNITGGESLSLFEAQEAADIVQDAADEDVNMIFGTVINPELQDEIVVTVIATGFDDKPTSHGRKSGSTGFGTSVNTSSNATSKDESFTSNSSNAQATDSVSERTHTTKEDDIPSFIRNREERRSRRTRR

[5] = Selectivity ratio of MBC for bactericidal activity against penicillin-susceptible Escherichia coli ATCC25922 to MIC for antibacterial activity against penicillin-susceptible Escherichia coli ATCC25922; type: functional
[6] = test system: Staphylococcus aureus; experiment: Bactericidal activity against methicillin-resistant Staphylococcus aureus ATCC43300 incubated for 24 hrs by CLSI protocol based microbroth dilution method; type: functional
[7] = biological target: T2, Cell division protein FtsZ (Escherichia coli K-12) (UniProt P0A9A6); experiment: Induction of recombinant FtsZ polymerization in penicillin-susceptible Escherichia coli ATCC25922 assessed as bundling of FtsZ protofilaments at 1 to 4 microg/ml incubated for 10 mins by light scattering assay; settings: filed as activator, dose 1-4 µg/ml
T2 sequence (whole entry): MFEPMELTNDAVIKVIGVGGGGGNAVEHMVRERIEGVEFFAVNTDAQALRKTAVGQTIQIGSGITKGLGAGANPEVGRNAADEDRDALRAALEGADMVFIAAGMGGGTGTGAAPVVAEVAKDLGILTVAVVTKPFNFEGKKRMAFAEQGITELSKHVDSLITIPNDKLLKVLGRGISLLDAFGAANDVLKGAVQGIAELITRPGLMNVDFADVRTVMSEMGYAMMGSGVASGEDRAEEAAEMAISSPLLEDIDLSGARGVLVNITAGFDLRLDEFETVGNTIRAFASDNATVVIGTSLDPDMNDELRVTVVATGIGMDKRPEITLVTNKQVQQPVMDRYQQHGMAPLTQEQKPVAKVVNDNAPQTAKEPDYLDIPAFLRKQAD

[8] = biological target: T1, Cell division protein FtsZ (Staphylococcus aureus); experiment: Induction of FtsZ polymerization in methicillin-resistant Staphylococcus aureus ATCC43300 assessed as bundling of FtsZ protofilaments at 4 microg/ml preincubated for 10 mins followed by GTP addition and measured after 15 mins by transmission electron microscopic analysis; settings: filed as activator, dose 4.0 µg/ml, time 25.0 min
[9] = test system: Staphylococcus aureus; experiment: Antibacterial activity against methicillin-resistant Staphylococcus aureus ATCC43300 assessed as reduction in bacterial count at 1 times of MIC incubated for 24 hrs by time kill kinetics assay; type: functional, organism-based
[10] = test system: Bacillus subtilis; experiment: Induction of morphological changes in Bacillus subtilis BNCC336690 assessed as cell elongation by measuring cell length at 0.5 times of MIC incubated for 4 hrs by optical microscopic analysis; type: functional
[11] = test system: Escherichia coli; experiment: Induction of morphological changes in penicillin-susceptible Escherichia coli ATCC25922 assessed as cell elongation at 0.5 times of MIC incubated for 4 hrs by optical microscopic analysis; type: functional, organism-based
[12] = test system: Pseudomonas aeruginosa; experiment: Antibacterial activity against Pseudomonas aeruginosa BNCC337940 assessed as inhibition of bacterial growth incubated for 18 hrs by CLSI protocol based microbroth dilution method; type: functional
[13] = test system: Staphylococcus aureus; experiment: Selectivity ratio of MBC for bactericidal activity against methicillin-resistant Staphylococcus aureus ATCC43300 to MIC for antibacterial activity against methicillin-resistant Staphylococcus aureus ATCC43300; type: functional
[14] = test system: Staphylococcus aureus; experiment: Antibacterial activity against methicillin-resistant Staphylococcus aureus ATCC43300 assessed as inhibition of bacterial growth incubated for 18 hrs by CLSI protocol based microbroth dilution method; type: functional
[15] = test system: Cell membrane; experiment: Disruption of cell membrane integrity in methicillin-resistant Staphylococcus aureus ATCC43300 assessed as appearance of striated structures at 4 times of MIC incubated for 2 hrs by scanning electron microscopic analysis; type: cell membranes
[16] = test system: Staphylococcus aureus; experiment: Antibacterial activity against methicillin-resistant Staphylococcus aureus ATCC43300 assessed as reduction in bacterial count at 4 times of MIC incubated for 24 hrs by time kill kinetics assay; type: functional, organism-based
[17] = test system: Cell membrane; experiment: Disruption of cell membrane integrity in penicillin-susceptible Escherichia coli ATCC25922 at 4 times of MIC incubated for 2 hrs by scanning electron microscopic analysis; type: cell membranes
[18] = biological target: T2, Cell division protein FtsZ (Escherichia coli K-12); experiment: Induction of FtsZ polymerization in penicillin-susceptible Escherichia coli ATCC25922 assessed as bundling of FtsZ protofilaments at 4 microg/ml preincubated for 10 mins followed by GTP addition and measured after 15 mins by transmission electron microscopic analysis; settings: filed as activator, dose 4.0 µg/ml, time 25.0 min
[19] = test system: Streptococcus pneumoniae; experiment: Antibacterial activity against Streptococcus pneumoniae ATCC49619 assessed as inhibition of bacterial growth incubated for 18 hrs by CLSI protocol based microbroth dilution method; type: functional
[20] = biological target: T1, Cell division protein FtsZ (Staphylococcus aureus); experiment: Effect on FtsZ GTPase activity in methicillin-resistant Staphylococcus aureus ATCC43300 upto 8 microg/ml incubated for 30 mins by malachite green phosphate based assay; settings: dose <= 8.0 µg/ml
[21] = test system: Escherichia coli; experiment: Bactericidal activity against penicillin-susceptible Escherichia coli ATCC25922 incubated for 24 hrs by CLSI protocol based microbroth dilution method; type: functional
[22] = test system: Bacillus subtilis; experiment: Antibacterial activity against Bacillus subtilis BNCC336690 assessed as inhibition of bacterial growth incubated for 18 hrs by CLSI protocol based microbroth dilution method; type: functional
[23] = test system: Staphylococcus aureus; experiment: Induction of morphological changes in methicillin-resistant Staphylococcus aureus ATCC43300 assessed as swelling at 0.5 times of MIC incubated for 4 hrs by optical microscopic analysis; type: functional, organism-based
[24] = biological target: T1, Cell division protein FtsZ (Staphylococcus aureus); experiment: Induction of recombinant FtsZ polymerization in methicillin-resistant Staphylococcus aureus ATCC43300 assessed as bundling of FtsZ protofilaments by measuring fold increase in maximal intensity at 4 microg/ml measured after 10 mins by light scattering assay; settings: filed as activator, dose 4.0 µg/ml
[25] = test system: Cell membrane; experiment: Disruption of cell membrane integrity in methicillin-resistant Staphylococcus aureus ATCC43300 assessed as morphological deformation at 4 times of MIC incubated for 2 hrs by transmission electron microscopic analysis; type: cell membranes

| Structure (SMILES) | Activity [1] | MIC [2] [µg/mL] | Activity [3] | Activity [4] | Selectivity ratio [5] | MBC [6] [µg/mL] | Activity [7] | Activity [8] | Activity [9] | Activity [10] [um] | Activity [11] | MIC [12] [µg/mL] | Selectivity ratio [13] | MIC [14] [µg/mL] | Activity [15] | Activity [16] | Activity [17] | Activity [18] | MIC [19] [µg/mL] | Activity [20] | other results |
| --- | --- | --- | --- | --- | --- | --- | --- | --- | --- | --- | --- | --- | --- | --- | --- | --- | --- | --- | --- | --- | --- |
| O=C1c2ccccc2-[n+]2ccc3c([nH]c4ccc(-c5ccccc5C(F)(F)F)cc43)c21.[Cl-] | Active | 12.5 | Non-Toxic | Active | 4 | 1.56 | Active | Active | Active | >50 | Active | > 200 | 1 | 1.56 | Active | Active | Active | Active | 0.195 | inactive | MBC [21]: 50 µg/mL; MIC [22]: 0.024 µg/mL; Activity [23]: Active; fold change (FC) [24]: 2; Activity [25]: Active |
| O=C1c2ccccc2-[n+]2ccc3c([nH]c4ccc(-c5ccccc5F)cc43)c21.[Cl-] | Active | 12.5 | Non-Toxic | Active | 1 | 0.195 | Active | Active | Active | >50 | Active | > 200 | 1 | 0.195 | Active | Active | Active | Active | 0.195 | inactive | MBC [21]: 6.25 µg/mL; MIC [22]: 0.024 µg/mL; Activity [23]: Active; fold change (FC) [24]: 2; Activity [25]: Active |
| O=C1c2ccccc2-[n+]2ccc3c([nH]c4ccc(-c5ccccc5Cl)cc43)c21.[Cl-] | Active | 50 | Non-Toxic | Active | 4 | 1.56 | Active | Active | Active | >50 | Active | > 200 | 1 | 1.56 | Active | Active | Active | Active | 0.195 | inactive | MBC [21]: 50 µg/mL; MIC [22]: 0.049 µg/mL; Activity [23]: Active; fold change (FC) [24]: 2; Activity [25]: Active |
